Experimental data as given in ChEMBL document CHEMBL1136300, “Structure-activity relationship studies on 2-heteroaryl-4-arylimidazoles NPY5 receptor antagonists” (Bioorg Med Chem Lett, 2003).
pEC50, pKi: −log10 of the molar value. The source made the active and inactive calls. No cut-off for these calls is given here.

Experiments:
[1] = molecular target: T1, Neuropeptide Y receptor type 5 (Homo sapiens, UniProt Q15761); experiment: Binding affinity towards human neuropeptide Y receptor type 5 using [125I]-PYY as radioligand in baculovirus-infected Sf9 cells
T1 sequence (Q15761 whole entry): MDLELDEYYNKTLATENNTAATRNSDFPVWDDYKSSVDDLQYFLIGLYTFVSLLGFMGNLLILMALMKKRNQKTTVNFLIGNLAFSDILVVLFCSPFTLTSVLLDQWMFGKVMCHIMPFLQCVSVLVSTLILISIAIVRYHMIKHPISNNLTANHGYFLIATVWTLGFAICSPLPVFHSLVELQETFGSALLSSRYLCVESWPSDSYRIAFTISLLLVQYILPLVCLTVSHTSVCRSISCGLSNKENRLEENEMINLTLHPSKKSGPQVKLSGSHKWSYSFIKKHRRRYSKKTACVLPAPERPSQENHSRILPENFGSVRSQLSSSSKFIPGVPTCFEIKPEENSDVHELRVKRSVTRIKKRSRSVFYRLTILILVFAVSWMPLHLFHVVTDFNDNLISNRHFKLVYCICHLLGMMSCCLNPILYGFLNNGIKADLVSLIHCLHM

HMCB cell line = experiment: Compound was tested for [Ca2+] mobilization in NPY5 transfected human Bowes melanoma (HMCB) cell line.; format: functional, cell-based
Rattus norvegicus [2] = organism: Rattus norvegicus; experiment: Food intake was measured for a 3-h period in 24-h food deprived rats;+/- =significant reduction in food intake / - =no significant reduction in food intake; format: functional, organism-based
Rattus norvegicus [3] = organism: Rattus norvegicus; experiment: Food intake was measured for a 3-h period in 24-h food deprived rats;+/- =significant reduction in food intake/- =no significant reduction in food intake; format: functional, organism-based
Rattus norvegicus [4] = experiment: Overnight food intake was measured in rat model in which compound was dosed 2 hr prior to onset of the dark cycle;+/- =significant reduction in food intake; format: functional, organism-based
Rattus norvegicus [5] = experiment: Locomotor activity in male Sprague-Dawley rats at 40 mg/kg oral dose; format: functional, organism-based; parameters: dose 40 mg/kg
Rattus norvegicus [6] = organism: Rattus norvegicus; experiment: Food intake was measured for a 3-h period in 24-h food deprived rats;+/+ =significant reduction in food intake; format: functional, organism-based
Rattus norvegicus [7] = experiment: Overnight food intake was measured in rat model in which compound was dosed 2 hr prior to onset of the dark cycle;- =no significant reduction in food intake; format: functional, organism-based
Rattus norvegicus [8] = experiment: Concentration of compound in brain was determined following a dose of 40 mg/kg administered orally at 4 hr; format: functional, organism-based; parameters: dose 40 mg/kg
Rattus norvegicus [9] = experiment: Concentration of compound in brain was determined following a dose of 40 mg/kg administered orally at 8 hr; format: functional, organism-based; parameters: dose 40 mg/kg
Rattus norvegicus [10] = experiment: Concentration of compound in plasma was determined following a dose of 40 mg/kg administered orally at 1 hr; format: functional, organism-based; parameters: dose 40 mg/kg
Rattus norvegicus [11] = experiment: Concentration of compound in plasma was determined following a dose of 40 mg/kg administered orally at 2 hr; format: functional, organism-based; parameters: dose 40 mg/kg
Rattus norvegicus [12] = experiment: Concentration of compound in plasma was determined following a dose of 40 mg/kg administered orally at 4 hr; format: functional, organism-based; parameters: dose 40 mg/kg
Rattus norvegicus [13] = experiment: Concentration of compound in plasma was determined following a dose of 40 mg/kg administered orally at 8 hr; format: functional, organism-based; parameters: dose 40 mg/kg
Rattus norvegicus [14] = experiment: Concentration of compound in Cerebrospinal fluid(CSF) was determined following a dose of 40 mg/kg administered orally at 8 hr; format: functional, organism-based; parameters: dose 40 mg/kg
Rattus norvegicus [15] = experiment: Concentration of compound in brain was determined following a dose of 40 mg/kg administered orally at 1 hr; format: functional, organism-based; parameters: dose 40 mg/kg
Rattus norvegicus [16] = experiment: Overnight food intake was measured in rat model in which compound was dosed 2 hr prior to onset of the dark cycle; - =no significant reduction in food intake; format: functional, organism-based
Rattus norvegicus [17] = organism: Rattus norvegicus; experiment: Ratio of the concentrations of compound in Brain to that of Plasma was determined at 1 hr; format: functional
Rattus norvegicus [18] = organism: Rattus norvegicus; experiment: Ratio of the concentrations of compound in Brain to that of Plasma was determined at 4 hr; format: functional
Rattus norvegicus [19] = organism: Rattus norvegicus; experiment: Ratio of the concentrations of compound in Brain to that of Plasma was determined at 8 hr; format: functional
Rattus norvegicus [20] = organism: Rattus norvegicus; experiment: Ratio of the concentrations of compound in brain to that of Plasma was determined at 2 hr; format: functional
Rattus norvegicus [21] = experiment: Concentration of compound in brain was determined following a dose of 40 mg/kg administered orally at 2 hr; format: functional, organism-based; parameters: dose 40 mg/kg

| Structure (SMILES) | pKi [1] | pEC50 (HMCB cell line) | also measured |
| --- | --- | --- | --- |
| Clc1ccc(-c2c[nH]c(-c3cnc4ccccc4c3)n2)cc1Cl | < 5.00 | – | – |
| Cc1[nH]c(-c2cccnc2)nc1-c1cccc(Cl)c1 | 7.72 | 7.40 | – |
| Cc1[nH]c(-c2cccnc2)nc1-c1ccc(Cl)cc1 | 7.16 | – | – |
| N#Cc1ccc(-c2c[nH]c(-c3cccnc3)n2)cc1 | 5.52 | – | – |
| Clc1ccccc1-c1c[nH]c(-c2cccnc2)n1 | 7.68 | 7.82 | – |
| Cc1cccc(-c2c[nH]c(-c3cccnc3)n2)c1 | 7.85 | 7.62 | – |
| FC(F)(F)c1ccccc1-c1c[nH]c(-c2cccnc2)n1 | 7.57 | 7.41 | – |
| FC(F)(F)Oc1cccc(-c2c[nH]c(-c3cccnc3)n2)c1 | 8.31 | 7.89 | – |
| FC(F)(F)c1ccc(-c2c[nH]c(-c3cccnc3)n2)cc1 | 7.43 | – | – |
| FC(F)(F)c1cccc(-c2c[nH]c(-c3cccnc3)n2)c1 | 8.80 | 8.49 | Activity (Rattus norvegicus [3]): inactive; Activity (Rattus norvegicus [4]): Active; Locomotor activity (Rattus norvegicus [5]): Active |
| Clc1ccc(-c2c[nH]c(-c3cnccn3)n2)cc1Cl | 7.40 | – | – |
| Clc1ccc(-c2c[nH]c(-c3ccncc3)n2)cc1Cl | 8.46 | – | – |
| Clc1ccc(-c2c[nH]c(-c3cc4ccccc4cn3)n2)cc1Cl | 5.32 | – | – |
| Clc1ccc(-c2c[nH]c(-c3nccc4ccccc34)n2)cc1Cl | 6.94 | 7.77 | – |
| c1ccc(-c2c[nH]c(-c3ccccc3)n2)cc1 | 7.47 | – | – |
| c1cncc(-c2nc(C3CCCCC3)c[nH]2)c1 | 6.64 | 7.44 | – |
| FC(F)(F)Oc1ccc(-c2c[nH]c(-c3cccnc3)n2)cc1 | 6.68 | – | – |

More lines, main results first:

| pKi [1] | pEC50 (HMCB cell line) | Structure (SMILES) | also measured |
| --- | --- | --- | --- |
| 7.40 | 7.28 | Cc1ccccc1-c1c[nH]c(-c2cccnc2)n1 | – |
| 5.82 | – | c1ccc(-c2c[nH]c(-c3ccncc3)n2)cc1 | – |
| 7.52 | – | Clc1ccc(-c2c[nH]c(-c3ccccn3)n2)cc1Cl | – |
| 7.25 | 7.35 | COc1cccc(-c2c[nH]c(-c3cccnc3)n2)c1 | – |
| 8.40 | – | Clc1ccc(-c2c[nH]c(-c3cccnc3)n2)cc1Cl | Activity (Rattus norvegicus [2]): inactive |
| 5.84 | – | c1ccc(-c2c[nH]c(-c3ccccn3)n2)cc1 | – |
| 7.47 | – | Fc1ccc(-c2c[nH]c(-c3cccnc3)n2)cc1F | – |
| 7.80 | – | Clc1ccc(-c2c[nH]c(-c3cccnc3)n2)cc1 | Activity (Rattus norvegicus [6]): Active; Activity (Rattus norvegicus [7]): inactive; Locomotor activity (Rattus norvegicus [5]): Active |
| 8.10 | – | Clc1cccc(-c2c[nH]c(-c3cccnc3)n2)c1 | Activity (Rattus norvegicus [3]): inactive; Concentration (Rattus norvegicus [8]): 29 µM; Concentration (Rattus norvegicus [9]): 4 µM; Concentration (Rattus norvegicus [10]): 10 µM; Concentration (Rattus norvegicus [11]): 11 µM; Concentration (Rattus norvegicus [12]): 6.2 µM; Concentration (Rattus norvegicus [13]): 1.3 µM; Concentration (Rattus norvegicus [14]): 0.011 µM; Concentration (Rattus norvegicus [15]): 45 µM; Activity (Rattus norvegicus [16]): inactive; Ratio (Rattus norvegicus [17]): 4.4; Ratio (Rattus norvegicus [18]): 4.8; Ratio (Rattus norvegicus [19]): 5.3; Ratio (Rattus norvegicus [20]): 5.1; Concentration (Rattus norvegicus [21]): 56 µM |
| 6.83 | 6.14 | COc1ccc(-c2c[nH]c(-c3cccnc3)n2)cc1OC | – |
| 6.28 | – | c1ccc(-c2c[nH]c(-c3cccnc3)n2)cc1 | – |
